The values below come from patent US9775878B2, “Methods for treating bacterial infections using oritavancin and polymyxins” (The Medicines Company, priority 2013, dated 2017).

Where two headings read alike, the source gives them in different places.

Assay [1] concerns Acinetobacter baumannii strains. Description: Broth macrodilution MICs under conditions used for synergy time-kill assays. The settings on record: for Broth macrodilution MICs: agent alone, time-kill conditions. The assay is classed as cell-based. The protocol: (§1) Broth microdilution MIC testing (CLSI M07-A9) was performed on the Acinetobacter baumannii (AB) reference strain ATCC 19606 (obtained from ATCC) and 10 AB strains, including 8 MDRAB (resistant to ≧3 of the following: beta-lactams, gentamicin, fluoroquinolones and tetracycline; obtained from Eurofins Medinet Chantilly, Va.). The requirement of 0.002% polysorbate 80 (P-80) for testing oritavancin also necessitated the testing of COL in the presence of P80. Checkerboard assays were used to determine activity of antimicrobial combinations; fractional inhibitory concentration indices (FICI) were used to define synergy, indifference or antagonism. Broth macrodilution MICs were determined following conditions used for synergy time-kill assays. Synergy time-kill studies were performed following CLSI guidelines.
Minimum inhibitory concentrations (MICs). Broth microdilution MICs were determined according to CLSI (CLSI document M7-A9, 2013) guidelines with the exception that COL MICs were also determined in the presence of 0.002% polysorbate 80 (P80) since P80 was to be present in the combination tests because of its requirement for testing oritavancin. Broth macrodilution MICs were determined following conditions used for synergy time-kill assays.

For assay [2] the test system is unchanged. The assay is described as above. The assay is classed as cell-based. Particulars: ATCC19609, read-out: Broth macrodilution MICs.
For assay [3] the test system is unchanged. Description: Synergy time-kill assay. The assay is classed as cell-based. Particulars: concentration of the agent within the ORI+COL combination, ≧2 log CFU/mL decrease vs most active constituent at 24 h, 0.002% P80. The protocol: as §1
Time-kill assays followed CLSI guidelines (NCCLS, CLSI document M26-A2, 1999) with the exception that 96 deep-well plates were used. Exponential-phase bacteria were diluted to approximately 5×10^5 colony-forming units (CFU)/mL and exposed to ORI or COL alone, or in combination in CAMHB containing 0.002% P80. Bacteria were enumerated by serial dilution plating. To prevent drug carryover during serial dilution plating, aliquots of the drug-challenged culture were added to an equal volume of 25 mg/mL activated charcoal suspension. […] All experiments were repeated at least two times and a representative experiment is presented in the plots; data points are an average of duplicate CFU/mL determinations within an experiment.

The test system of assay [4] is S. aureus (MSSA, MRSA, VRSA). The settings on record: within 15 minutes to 2 hours, MRSA and VRSA; cited from earlier work.

Take `CN[C@H](CC(C)C)C(=O)N[C@H]1C(=O)N[C@@H](CC(N)=O)C(=O)N[C@H]2C(=O)N[C@H]3C(=O)N[C@H](C(=O)N[C@H](C(=O)O)c4cc(O)cc(O)c4-c4cc3ccc4O)[C@H](O[C@H]3C[C@](C)(N)[C@@H](O)[C@H](C)O3)c3ccc(c(Cl)c3)Oc3cc2cc(c3O[C@@H]2O[C@H](CO)[C@@H](O)[C@H](O)[C@H]2O[C@H]2C[C@](C)(NCc3ccc(-c4ccc(Cl)cc4)cc3)[C@@H](O)[C@H](C)O2)Oc2ccc(cc2Cl)[C@H]1O` [ORI, Oritavancin]: the MIC is more than 8 µg/mL in assay [1] (Acinetobacter baumannii, read-out: Broth macrodilution MICs) and more than 8 µg/mL in assay [2]. Besides, the “Broth macrodilution MICs” value in assay [1] (strain 2691748 (Non-MDR)), in assay [1] (strain 2691818 (Non-MDR)), in assay [1] (strain 2691999 (MDR)), in assay [1] (strain 2692406 (MDR)), in assay [1] (strain 2692650 (MDR)) and in assay [1] (strain 2693922 (MDR)) was more than 8 µg/mL throughout. The “Broth macrodilution MICs” value in assay [1] (strain 2694038 (MDR)), in assay [1] (strain 2694224 (MDR)) and in assay [1] (strain 2694227 (MDR)) was more than 8 µg/mL throughout. Further, the “Concentrations that yielded synergy in time-kill” value in assay [3] (strain 2691748 (Non-MDR)) turned out to be 8 µg/mL; in assay [3] (strain 2691818 (Non-MDR)), 4 µg/mL; in assay [3] (strain 2691999 (MDR)), 4 µg/mL; in assay [3] (strain 2692406 (MDR)), 4 µg/mL; in assay [3] (strain 2692650 (MDR)) it was 4 µg/mL; in assay [3] (strain 2692721 (MDR)), 4 µg/mL. Moreover, the “Concentrations that yielded synergy in time-kill” value in assay [3] (strain 2693922 (MDR)), in assay [3] (strain 2694038 (MDR)), in assay [3] (strain 2694224 (MDR)), in assay [3] (strain 2694227 (MDR)) and in assay [3] (strain ATCC 19609 (Non-MDR)) was 4 µg/mL throughout. Moreover, the “Reduction of exponentially-growing S. aureus (rapidity of bactericidal activity)” value in assay [4] was not below 3 log.
